Patent publication US20210317140A1, “Heterocyclic Compounds and Methods of Use” (MEDIVATION TECHNOLOGIES, INC, priority 2013, published 2021)

Key:
PI3Kα = molecular target: T1, PI3Kα (Homo sapiens, UniProt P42336); experiment: PI3Kα isoform profiling (PI3Kδ protocol); assay type: biochemical; conditions: for IC50: 10 dose IC50; for PI3Kα @ 0.3 μM (% Inh): 0.3 μM compound
T1 construct: purchased Reaction Biology Corporation
Source text: PI3Kδ assay: The PIP3 product is detected by displacement of biotin-PIP3 from an energy transfer complex consisting of Europium labeled anti-GST monoclonal antibody, a GST-tagged pleckstrin homology (PH) domain, biotinylated PIP3 and Streptavidin-Allophycocyanin (APC). Excitation of Europium in the complex results in an energy transfer to the APC and a fluorescent emission at 665 nm. The PIP3 product formed by PI 3-Kinase(h) activity displaces biotin-PIP3 from the complex resulting in a loss of energy transfer and thus a decrease in signal. This is a 3-step reaction: First, the kinase reaction with PIP2 substrate is carried out in the presence of ATP (10 μM), and the reaction is quenched with stop Solution, and then finally detect by adding Detection Mixture followed by incubation (10 min). Reaction procedure: 1) Prepare substrate in freshly prepared Reaction Buffer. 2) Deliver kinase into the substrate solution and gently mix. 3) Deliver compounds in 100% DMSO (1 μM) into the kinase reaction mixture by Acoustic technology (Echo550; nanoliter range), incubate for 10 min at RT. 4) Deliver ATP into the reaction mixture to initiate the reaction. 5) Incubate for 30 min at 30° C. 6) Quench the reaction with Stop Solution. 7) Add Detection Mixture, and incubate for overnight. 8) Measure HTRF: Ex=320 nm, ratio of Em=615 nm and Em=665 nm. The emission ratio is converted into μM PIP3 production based on PIP3 standard curves. The nonlinear regression to obtain the standard curve and IC50 values are performed using Graphpad Prism software. Assay Buffer: HEPES 50 mM (pH7.0), NaN3 0.02%, BSA 0.01%, Orthovanadate 0.1 mM, 1% DMSO. Detection buffer: HEPES 10 mM (pH7.0), BSA 0.02%, KF 0.16 M, EDTA 4 mM. Substrate: 10 μM PIP2 substrate (PI(4,5)P2).
Compounds of the invention were profiled in a 10 dose IC50 panel against PI3Kα, PI3Kβ, and PI3Kγ kinases, provided by Reaction Biology Corporation, applied to the PI3Kδ protocol provided in Example B1.

BMX/ETK = molecular target: T2, BMX/ETK (Homo sapiens, UniProt P51813); experiment: BMX/ETK kinase profiling (BTK protocol); assay type: biochemical; conditions: for IC50: 10 dose IC50; for BMX/ETK @ 0.3 μM (% Inh): 0.3 μM compound
T2 construct: purchased Reaction Biology Corporation
T2 sequence (P51813 1-675): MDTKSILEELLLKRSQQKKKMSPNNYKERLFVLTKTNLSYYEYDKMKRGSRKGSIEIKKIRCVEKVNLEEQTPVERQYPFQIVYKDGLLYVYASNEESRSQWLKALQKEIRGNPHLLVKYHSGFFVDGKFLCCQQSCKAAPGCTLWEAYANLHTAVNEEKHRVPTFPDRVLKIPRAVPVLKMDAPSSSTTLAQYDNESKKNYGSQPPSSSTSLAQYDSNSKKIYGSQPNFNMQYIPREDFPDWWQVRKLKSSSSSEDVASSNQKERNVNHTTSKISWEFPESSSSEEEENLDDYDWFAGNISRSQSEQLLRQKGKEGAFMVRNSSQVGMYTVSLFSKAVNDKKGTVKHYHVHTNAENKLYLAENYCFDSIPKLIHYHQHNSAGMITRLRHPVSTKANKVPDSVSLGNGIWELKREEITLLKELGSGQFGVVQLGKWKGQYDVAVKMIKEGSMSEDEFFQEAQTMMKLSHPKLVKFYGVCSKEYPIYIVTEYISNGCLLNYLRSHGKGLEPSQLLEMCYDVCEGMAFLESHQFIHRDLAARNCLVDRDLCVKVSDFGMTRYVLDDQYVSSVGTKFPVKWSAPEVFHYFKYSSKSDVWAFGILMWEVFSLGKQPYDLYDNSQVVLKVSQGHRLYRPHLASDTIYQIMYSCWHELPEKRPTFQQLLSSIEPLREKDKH
Description: BTK assay: In vitro profiling protein kinases was performed using the “HotSpot” assay platform. Briefly, specific kinase/substrate pairs along with required cofactors were prepared in reaction buffer. Compounds were prepared as 10 mM stock solutions in DMSO. Compounds were delivered into the reaction, followed 15-20 minutes later by addition of a mixture of ATP (Sigma, St. Louis Mo.) and ^33P ATP (Perkin Elmer, Waltham Mass.) to a final concentration of 10 μM. Reactions were carried out at RT for 120 min, followed by spotting of the reactions onto P81 ion exchange filter paper (Whatman Inc., Piscataway, N.J.). Unbound phosphate was removed by extensive washing of filters in 0.75% Phosphoric acid. […] IC50 values and curve fits were obtained using Prism (GraphPad Software). Buffer Conditions: 20 mM Hepes (pH 7.5), 10 mM MgCl2, 1 mM EGTA, 0.02% Brij35, 0.02 mg/mL BSA, 0.1 mM Na3VO4, 2 mM DTT, 1% DMSO.
Compounds of the invention were profiled in a 10 dose IC50 panel against BMX/ETK, ITK and TEC kinases, provided by Reaction Biology Corporation, applied to the BTK protocol provided in Example B1.

T1 sequence (P42336 whole entry, canonical isoform): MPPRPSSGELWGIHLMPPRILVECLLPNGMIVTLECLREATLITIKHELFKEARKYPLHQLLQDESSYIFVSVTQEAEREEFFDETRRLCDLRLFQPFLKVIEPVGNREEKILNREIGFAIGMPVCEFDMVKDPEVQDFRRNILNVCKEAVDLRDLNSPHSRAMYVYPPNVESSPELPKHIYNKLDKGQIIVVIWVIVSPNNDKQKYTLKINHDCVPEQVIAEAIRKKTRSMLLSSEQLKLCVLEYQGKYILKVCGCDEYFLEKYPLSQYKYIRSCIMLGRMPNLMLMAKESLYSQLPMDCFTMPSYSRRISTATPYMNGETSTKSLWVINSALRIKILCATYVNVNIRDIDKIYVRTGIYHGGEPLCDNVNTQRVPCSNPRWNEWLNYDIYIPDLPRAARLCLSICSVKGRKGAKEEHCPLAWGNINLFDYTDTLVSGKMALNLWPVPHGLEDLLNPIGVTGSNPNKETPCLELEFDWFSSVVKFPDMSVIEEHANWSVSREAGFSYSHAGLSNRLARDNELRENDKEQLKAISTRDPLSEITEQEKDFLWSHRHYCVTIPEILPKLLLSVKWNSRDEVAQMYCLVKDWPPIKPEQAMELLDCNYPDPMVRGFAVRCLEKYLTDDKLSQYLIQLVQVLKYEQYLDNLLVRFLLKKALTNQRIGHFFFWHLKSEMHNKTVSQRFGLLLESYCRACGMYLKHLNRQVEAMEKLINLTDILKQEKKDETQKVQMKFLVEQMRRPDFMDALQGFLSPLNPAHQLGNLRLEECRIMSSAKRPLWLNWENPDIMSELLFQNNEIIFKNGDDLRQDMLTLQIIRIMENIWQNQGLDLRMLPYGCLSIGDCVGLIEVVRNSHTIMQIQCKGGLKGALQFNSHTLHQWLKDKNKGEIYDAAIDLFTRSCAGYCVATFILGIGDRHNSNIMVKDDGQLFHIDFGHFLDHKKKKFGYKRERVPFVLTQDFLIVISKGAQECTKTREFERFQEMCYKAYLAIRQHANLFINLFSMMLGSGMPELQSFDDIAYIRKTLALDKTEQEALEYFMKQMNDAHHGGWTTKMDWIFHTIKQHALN
T1 sequence (P27986 whole entry partner, canonical isoform): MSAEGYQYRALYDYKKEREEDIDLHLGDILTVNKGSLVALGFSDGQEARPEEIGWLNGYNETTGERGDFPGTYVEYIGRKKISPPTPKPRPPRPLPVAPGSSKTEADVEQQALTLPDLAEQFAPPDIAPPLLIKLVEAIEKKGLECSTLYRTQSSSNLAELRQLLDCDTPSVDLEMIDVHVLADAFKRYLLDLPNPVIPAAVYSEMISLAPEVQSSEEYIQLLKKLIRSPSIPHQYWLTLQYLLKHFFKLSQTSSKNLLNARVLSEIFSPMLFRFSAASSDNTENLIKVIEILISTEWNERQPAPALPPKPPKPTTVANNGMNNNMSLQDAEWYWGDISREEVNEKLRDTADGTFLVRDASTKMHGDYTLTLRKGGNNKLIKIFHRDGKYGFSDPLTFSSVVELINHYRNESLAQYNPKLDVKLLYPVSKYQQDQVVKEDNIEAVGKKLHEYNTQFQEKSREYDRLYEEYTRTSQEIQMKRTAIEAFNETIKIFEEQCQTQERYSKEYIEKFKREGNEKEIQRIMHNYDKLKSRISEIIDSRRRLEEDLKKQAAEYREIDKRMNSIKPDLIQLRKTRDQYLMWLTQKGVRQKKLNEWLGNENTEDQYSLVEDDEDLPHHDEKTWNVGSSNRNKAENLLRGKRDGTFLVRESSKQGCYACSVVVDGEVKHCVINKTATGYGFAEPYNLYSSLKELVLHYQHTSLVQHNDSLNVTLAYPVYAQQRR

| IC50 (PI3Kα) | BMX/ETK @ 0.3 μM (% Inh) (BMX/ETK) | Structure (SMILES) | other results |
| --- | --- | --- | --- |
| 0.0835 µM | 92.59 % Inh | Nc1ncnc2c1c(-c1cc(O)c(F)c(Cl)c1)cn2C1Cc2ccccc2C1 [compound 110, 5-[4-amino-7-(2,3-dihydro-1H-inden-2-yl)-7H-pyrrolo[2,3-d]pyrimidin-5-yl]-3-chloro-2-fluorophenol] |  |
|  | 73.26 % Inh | Nc1ncnc2c1c(-c1ccc3cc[nH]c3c1)nn2C1CCc2ccccc2C1 (racemic) [compound 18, 3-(1H-indol-6-yl)-1-(1,2,3,4-tetrahydronaphthalen-2-yl)-1H-pyrazolo[3,4-d]pyrimidin-4-amine] | PI3Kα @ 0.3 μM (% Inh) (PI3Kα): 33.14 % Inh |
| 0.0565 µM | 90.55 % Inh | Nc1ncnc2c1c(-c1cc(O)c(Cl)c(Cl)c1)cn2C1Cc2ccccc2C1 [Compound No. 107, 5-[4-amino-7-(2,3-dihydro-1H-inden-2-yl)-7H-pyrrolo[2,3-d]pyrimidin-5-yl]-2,3-dichlorophenol] |  |
|  | 92.36 % Inh | Nc1ncnc2c1c(-c1ccc(F)c(O)c1)nn2C1CCc2ccccc2C1 (racemic) [Compound No. 26, 5-(4-amino-1-(1,2,3,4-tetrahydronaphthalen-2-yl)-1H-pyrazolo[3,4-d]pyrimidin-3-yl)-2-fluorophenol] | PI3Kα @ 0.3 μM (% Inh) (PI3Kα): 53.79 % Inh |
| 0.249 µM | 88.04 % Inh | C=CC(=O)N1CC(n2nc(-c3cc(O)cc(F)c3)c3c(N)ncnc32)Cc2cc(C)ccc21 (single isomer, unassigned) [31b, 1-(3-(4-amino-3-(3-fluoro-5-hydroxyphenyl)-1H-pyrazolo[3,4-d]pyrimidin-1-yl)-6-methyl-3,4-dihydroquinolin-1(2H)-yl)prop-2-en-1-one] |  |
| 0.12 µM | 97.14 % Inh | Nc1ncnc2c1c(-c1cc(O)c(F)c(F)c1)cn2C1Cc2ccccc2C1 [Compound No. 101, 5-[4-amino-7-(2,3-dihydro-1H-inden-2-yl)-7H-pyrrolo[2,3-d]pyrimidin-5-yl]-2,3-difluorophenol] |  |
| 0.638 µM | 62.51 % Inh | Nc1ncnc2c1c(-c1cc(F)c3c(c1)NCCO3)nn2C1Cc2ccccc2C1 [Compound No. 84, 1-(2,3-dihydro-1H-inden-2-yl)-3-(8-fluoro-3,4-dihydro-2H-1,4-benzoxazin-6-yl)-1H-pyrazolo[3,4-d]pyrimidin-4-amine] |  |
|  | 72.12 % Inh | N#Cc1cc(-c2cn(C3Cc4ccccc4C3)c3ncnc(N)c23)cc(O)c1F [compound 115, 5-[4-amino-7-(2,3-dihydro-1H-inden-2-yl)-7H-pyrrolo[2,3-d]pyrimidin-5-yl]-2-fluoro-3-hydroxybenzonitrile] |  |
| 0.0701 µM | 107.37 % Inh | Nc1ncnc2c1c(-c1ccc(Cl)c(O)c1F)nn2C1Cc2ccccc2C1 [Compound No. 100, 3-[4-amino-1-(2,3-dihydro-1H-inden-2-yl)-1H-pyrazolo[3,4-d]pyrimidin-3-yl]-6-chloro-2-fluorophenol] |  |
| 0.0211 µM | 85.6 % Inh | Nc1ncnc2c1c(-c1cc(O)c(F)c(F)c1)nn2C1Cc2ccccc2C1 [Compound No. 81, 5-[4-amino-1-(2,3-dihydro-1H-inden-2-yl)-1H-pyrazolo[3,4-d]pyrimidin-3-yl]-2,3-difluorophenol] |  |
|  |  | Nc1ncnc2c1c(-c1cc(O)cc(F)c1)nn2C1CCc2ccccc2C1 (single isomer, unassigned) [6b, 3-(4-amino-1-(1,2,3,4-tetrahydronaphthalen-2-yl)-1H-pyrazolo[3,4-d]pyrimidin-3-yl)-5-fluorophenol] | PI3Kα @ 0.3 μM (% Inh) (PI3Kα; 0.3 µM): 91.35 % Inh; BMX/ETK @ 0.3 μM (% Inh) (BMX/ETK; 0.3 µM): 71.49 % Inh |
|  |  | Nc1ncnc2c1c(-c1cc(O)cc(F)c1)nn2C1CCc2ccccc2C1 (single isomer, unassigned) [6a, 3-(4-amino-1-(1,2,3,4-tetrahydronaphthalen-2-yl)-1H-pyrazolo[3,4-d]pyrimidin-3-yl)-5-fluorophenol] | PI3Kα @ 0.3 μM (% Inh) (PI3Kα; 0.3 µM): 85.6 % Inh; BMX/ETK @ 0.3 μM (% Inh) (BMX/ETK; 0.3 µM): 84.79 % Inh |
| 0.0731 µM |  | Nc1ncnc2c1c(-c1ccc(F)c(O)c1)nn2C1Cc2ccccc2C1 [Compound No. 29, 5-(4-amino-1-indan-2-yl-pyrazolo[3,4-d]pyrimidin-3-yl)-2-fluoro-phenol] | IC50 (BMX/ETK): 0.0008 µM |
| 0.186 µM | 86.63 % Inh | Nc1ncnc2c1c(-c1ccc(Cl)c(O)c1)nn2C1Cc2ccccc2C1 [Compound No. 56, 5-[4-amino-1-(2,3-dihydro-1H-inden-2-yl)-1H-pyrazolo[3,4-d]pyrimidin-3-yl]-2-chlorophenol] |  |
| 0.014 µM | 78.92 % Inh | COc1ccc(-c2nn(C3Cc4ccccc4C3)c3ncnc(N)c23)cc1O [Compound No. 68, 5-[4-amino-1-(2,3-dihydro-1H-inden-2-yl)-1H-pyrazolo[3,4-d]pyrimidin-3-yl]-2-methoxyphenol] |  |
| 0.0711 µM | 74.27 % Inh | Nc1ncnc2c1c(-c1cc(O)cc(F)c1)nn2C1Cc2ccc(F)cc2C1 (centres unmarked) [compound 57, 3-[4-amino-1-(5-fluoro-2,3-dihydro-1H-inden-2-yl)-1H-pyrazolo[3,4-d]pyrimidin-3-yl]-5-fluorophenol] |  |
| 0.0211 µM | 4.6 % Inh | Nc1ncnc2c1c(-c1cc(O)c(F)c(C(F)(F)F)c1)nn2C1Cc2ccccc2C1 [Compound No. 102, 5-[4-amino-1-(2,3-dihydro-1H-inden-2-yl)-1H-pyrazolo[3,4-d]pyrimidin-3-yl]-2-fluoro-3-(trifluoromethyl)phenol] |  |
| 0.504 µM | 75.85 % Inh | COc1cc(-c2nn(C3Cc4ccccc4C3)c3ncnc(N)c23)ccc1C [Compound No. 49, 1-(2,3-dihydro-1H-inden-2-yl)-3-(3-methoxy-4-methylphenyl)-1H-pyrazolo[3,4-d]pyrimidin-4-amine] |  |
| 0.161 µM |  | Nc1ncnc2c1c(-c1ccc(F)c(O)c1)nn2C1CCc2ccccc2C1 (single isomer, unassigned) [Compound No. 26b, 5-(4-amino-1-(1,2,3,4-tetrahydronaphthalen-2-yl)-1H-pyrazolo[3,4-d]pyrimidin-3-yl)-2-fluorophenol] | IC50 (BMX/ETK): 0.0062 µM |

| Structure (SMILES) | IC50 (PI3Kα) | BMX/ETK @ 0.3 μM (% Inh) (BMX/ETK) | other results |
| --- | --- | --- | --- |
| Nc1ncnc2c1c(-c1ccc(Br)c(O)c1)nn2C1Cc2ccccc2C1 [compound 2, 5-(4-amino-1-(2,3-dihydro-1H-inden-2-yl)-1H-pyrazolo[3,4-d]pyrimidin-3-yl)-2-bromophenol] | 0.0173 µM |  | IC50 (BMX/ETK): 0.0077 µM |
| Nc1ncnc2c1c(-c1cc(O)cc(F)c1)nn2C1Cc2ccccc2C1 [compound 3, 3-(4-amino-1-(2,3-dihydro-1H-inden-2-yl)-1H-pyrazolo[3,4-d]pyrimidin-3-yl)-5-fluorophenol] | 0.0201 µM |  | IC50 (BMX/ETK): 0.189 µM |
